The nature of data set [1]: Human skin ex vivo: flux through skin and dermis concentration (Franz cells). The data set is classed as in vitro ADME. Particulars: PG/H2O cream 1 mg/mL, human skin.
The target in another data set is T1, CYP2D6 (Homo sapiens, UniProt P10635).
T1 construct: Human pooled liver microsomes of mixed gender (mainly Caucasian); from tissue; host or cells: pooled human liver microsomes
In words: CYP2D6 inhibition in human liver microsomes. Particulars: dextromethorphan, CRL data. It is filed as in vitro ADME. How it is done:
After 5 min at 37° C. incubations were started with NADPH and prolonged for 10 min. The test compound was tested up to 30 μM keeping the final concentration of organic solvent was below 0.5%. The final concentration of microsomes was 0.1 mg/ml to ensure linearity during the time of the incubation. The reaction was quenched by adding 3 volume of acetonitrile. After centrifugation the supernatant was analyzed by HPLC/MS/MS for the formation of des-methyldextromethorphane selectively produced by CYP2D6 and 1′hydroxymidazolam or 6p-hydroxytestosterone, selectively produced by CYP3A. IC50 was calculated with Graphpad Prism v.7 comparing the amount of metabolite produced in presence of the test compound with that produced in absence of test item.

The next data set in a line: SF logD. It is filed as physicochemical.
In data set [2] the test system is IL-6 induced pSTAT3 in TF-1 cells. As to the kind of experiment: In vitro cellular pSTAT3 assay, IL-6 stimulated TF-1 cells. The data set is classed as cell-based. The conditions noted are these: Homo sapiens. The protocol: . The flasks were incubated overnight at 37° C., 5% CO2 then seeded in 96 well plates (TPP) at 150000 cells/well in 25 μL. Cells were treated with 5 IL/well of serially diluted compounds in DMSO (final DMSO concentration of 0.1%) and incubated for 30 min at 37° C. IL-6 (6 IL/well, 100 ng/ml as a final concentration in Opti-MEM, Thermofisher, PHC0066) was added to the cell plates and followed by a 30-min incubation at 37° C. Next, cells were lysed by adding 12 μl/well of 4× supplemented lysis buffer, incubated at 4° C. for 30 min under agitation. The samples were processed for the pSTAT3 detection as described by the manufacturer (MSD) with 25 μl of non-diluted cell lysates tested. Compounds were tested in simplicates over 10 three-step dilutions in order to determine their IC50 values.

The nature of data set [3]: Protein binding analysis (RED), human plasma. It is filed as in vitro ADME. Particulars: 5 μM. How it is done: (§1) The protein binding was assessed in plasma of Human, male balb-c mice, male Wistar Han rat, male Göttingen minipig by rapid equilibrium dialysis (RED) devices. After the plasma and buffer phosphate 50 mM pH7.4 were equilibrated at 37° C., the compound was added to plasma to reach a final concentration of 5 μM. An aliquot of plasma was withdrawn immediately. Equilibration under mild agitation was continued for 4 h. The plasma and buffer were sampled and samples were quenched with 4 volumes of acetonitrile and centrifuged. Supernatant was quantified in HPLC/MS/MS to calculate the recovery and the percentage of compound dissolved in the buffer (unbound) and bound to plasma proteins.

The next data set is described as follows: Kinetic aq sol. It is filed as physicochemical.
A short description of data set [4]: In vivo pharmacokinetic analysis in minipig (iv). Details: species or system male Göttingen minipigs. The conditions noted are these: iv 1 mg/kg. How it is done: Three male Göttingen minipigs. Compound was administered intravenously to fed animals at a target dose of 1 mg/kg, dose volume 1 mL/kg, in DMSO: hydroxypropyl-p-cyclodextrin 20% in phosphate buffer 60 mM pH 7 (5:95). Blood samples were collected at various time points. Blood samples were then assayed using a method based upon protein precipitation with acetonitrile followed by LC/MS/MS analysis. Non-compartmental methods were used for pharmacokinetic analysis of blood concentration versus time data.

Data set [5] can be described thus: Intrinsic clearance in hepatocytes, rat. The data set is classed as in vitro ADME, male Wistar Han rats. The conditions noted are these: 2.5 μM. How it is done:
(§2) The intrinsic clearance was assessed in cryopreserved Hepatocytes obtained by Human livers donors of mix gender pooled together, male balb-c mouse, male Wistar Han rats and male Göttingen minipig, by looking at the parent compound disappearance. The incubations were performed using a final concentration of viable cells of 1 million/ml (viability above 70%) and test item of 2.5 μM. Incubations were followed up to 2 h. Aliquotes were withdrawn at different time points and reaction quenched with acetonitrile. After centrifugation the supernatant was analyzed by HPLC/MS to quantify the remaining amount of parent in comparison with time 0. The clearance was calculated by fitting the log of the percentage remaining with Graphpad Prism ver.7.

Data set [6] is described as follows: Protein binding analysis (RED), mouse plasma. The data set is classed as in vitro ADME, male balb-c mice. Particulars: 5 μM. How it is done:
as §1

Data set [7] is described as follows: Intrinsic clearance in hepatocytes, minipig. The conditions noted are these: 2.5 μM. The data set is classed as in vitro ADME, male Göttingen minipig. The protocol:
as §2

Another data set has as its system 44 targets. The data set is classed as binding. The protocol:
An in vitro pharmacology assay was conducted to assess the capability of the compounds to interact with different pharmacological targets when tested at 10 μM in different binding and enzyme/uptake assays. The included targets are indicative of potential effects in major organs and drug-drug interactions.
Compound binding was calculated as a % inhibition of the binding of a radioactively labelled ligand specific for each target. […] […].

The next data set is described as follows: Chrom logD pH 7.4. It is filed as physicochemical.
The nature of data set [8]: Thermodynamic sol PG_H2O pH 6 2/8. The data set is classed as physicochemical. Particulars: amorphous material.
Data set [9] is described as follows: Protein binding analysis (RED), minipig plasma. It is filed as in vitro ADME. The conditions noted are these: male, Göttingen, pH 7.4, read-out: minipig FU. How it is done:
as §1

The nature of data set [10]: Intrinsic clearance in hepatocytes, human. The conditions noted are these: 2.5 μM. The data set is classed as in vitro ADME. How it is done: as §2
Data set [11] in a line: In vivo pharmacokinetic analysis in rat (iv). The arrangement: species or system male Wistar Han rat. Particulars: iv 1 mg/kg. The protocol:
One male Wistar Han rat. Compound was administered intravenously to fed animal at a target dose of 1 mg/kg, dose volume: 2 mL/kg, in DMSO/hydroxypropyl-beta-cyclodextrin 20% in phosphate buffer 60 mM pH 7 (5:95). Blood samples were collected at various time points. Blood samples were then assayed using a method based upon protein precipitation with acetonitrile followed by LC/MS/MS analysis. Non-compartmental methods were used for pharmacokinetic analysis of blood concentration versus time data

Data set [12] in a line: Systemic level in PD/IL6 mouse topical dose response. The data set is classed as in vivo, BALB/c ByJ Rj mice. Particulars: topical 10 mM. The protocol:
Skin samples were harvested 15 min.

Data set [13] in a line: Intrinsic clearance in hepatocytes, mouse. The data set is classed as in vitro ADME, male balb-c mouse. Particulars: 2.5 μM. The protocol:
as §2

The next data set deals with IL6. In words: hWB assay, IL6. The data set is classed as cell-based, h.
A short description of data set [14]: Protein binding analysis (RED), rat plasma. Particulars: 5 μM. The data set is classed as in vitro ADME, male Wistar Han rat. The protocol: as §1

The term IC50 denotes the concentration needed to halve the response being measured. For orientation: logD means the decadic logarithm of the distribution of all forms, ionised or not, between an organic phase and buffer at a given pH. Lower therefore signals lower lipophilicity. The chromatographic logD is a lipophilicity value derived from retention on a column.

Structures are written as SMILES. Values joined by “and” are separate entries in the source; they are usually repeats but may differ in a detail not shown here. Equal entries are not always repeated. Where two headings read alike, the source gives them in different places.

T1 sequence (P10635 whole entry): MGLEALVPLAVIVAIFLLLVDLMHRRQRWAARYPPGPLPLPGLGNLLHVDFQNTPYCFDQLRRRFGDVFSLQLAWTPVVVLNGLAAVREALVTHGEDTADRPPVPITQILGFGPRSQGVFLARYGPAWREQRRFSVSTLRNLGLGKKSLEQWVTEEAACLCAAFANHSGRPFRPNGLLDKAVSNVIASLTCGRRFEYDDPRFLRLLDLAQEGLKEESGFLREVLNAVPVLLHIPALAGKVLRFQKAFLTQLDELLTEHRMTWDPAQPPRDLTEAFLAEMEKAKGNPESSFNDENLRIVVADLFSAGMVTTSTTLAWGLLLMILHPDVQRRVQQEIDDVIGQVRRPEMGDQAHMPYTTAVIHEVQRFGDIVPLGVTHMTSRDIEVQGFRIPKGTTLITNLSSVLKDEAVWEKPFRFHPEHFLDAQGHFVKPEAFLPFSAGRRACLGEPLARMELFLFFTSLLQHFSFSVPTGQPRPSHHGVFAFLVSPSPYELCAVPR

As to `N#CC[C@H](C1CCCC1)n1cc(-c2ncnc3[nH]ccc23)cn1` [Ruxolitinib, reference compound], the “measured flux 6-24 hr” value in data set [1] was 5.3 ng/cm^2/hr. Further, the half-maximal inhibitory concentration (IC50) on CYP2D6 is more than 30000 nM; in [2] (TF-1, read-out: Cellular Assay: IC50 IL6), 8 nM; in data set [2] (TF-1, read-out: Free IC50), 200 nM; in the data set on IL6, 6900 nM. The compound further returned a logD in “SF logD” of 2.3. In [3], the hFU is recorded as 4%. The Kinetic aq sol in “Kinetic aq sol” is listed as 232/ND (no cristalline microM. For the same compound, in data set [4], the “iv PK minipig: ER” value was 68%. Further, the clearance was determined as 19 mL/min/kg in data set [4] (male, Göttingen, whole blood, read-out: iv PK minipig: Cl) and 40 mL/min/kg in [11] (male, Wistar Han, whole blood, read-out: iv PK rat: Cl). Also, in [5], the “Intr. Clear. rheps” value was determined as 300 microL/min/10 6 cells. In data set [6], this compound yielded a mFU of 7.7%. Further, the “Intr. Clear. minipig heps” value in [7] is 141 microL/min/10 6 cells. The “Safety panel (Cerep): 44 targets % inh @10 microM Nb of targets > 50% inh” value in the data set with 44 targets is reported as 0/44. In addition, in the data set “Chrom logD pH 7.4”, the chromatographic logD came to 1.5. The “Thermodynamic sol PG_H2O pH 6 2/8” value in [8] was 1 mM and 0.3 mg/mL. For the same compound, the fraction unbound at 4 h, 5 μM in data set [9] came to 0.25. In addition, the “Intr. Clear. h heps” value in data set [10] was determined as 4.4 microL/min/10 6 cells. In [11], the “iv PK rat: ER” value is reported as 51%. Besides, the “PD/IL6 mouse top DR 0.01-10 mM (PG/Acetone/Transcutol): Systemic level @10 mM - 2 hrs” value in [12] is reported as 81 nM. In data set [13], the “Intr. Clear. mheps” value turned out to be 150 microL/min/10 6 cells. The same compound gave a rFU in [14] of 13%.

(Values after US12583868B2, “JAK inhibitors and methods for synthesizing and using thereof” (GALDERMA HOLDING SA, priority 2020, dated 2026).)
